The values that follow come from PMC4552634, “A New Set of Chemical Starting Points with Plasmodium falciparum Transmission-Blocking Potential for Antimalarial Drug Discovery” (PLoS ONE, 2015).

The test system of data set [1] is P. falciparum stage V gametocytes. As to the kind of experiment: Gametocytocidal ATP bioluminescence assay (single point 5 μM and 1 μM, dose-response). Type of data set: cell-based, Plasmodium falciparum. The note with it: for Ratio IC50 HepG2/IC50 P. falciparum: IC50 HepG2 divided by IC50 P. falciparum gametocytes.
Procedure: Purified stage IV-V gametocytes were obtained as previously described [10]. Single point ATP bioluminescence assay and dose–response of positive hits was determined in accordance with the previously published protocol [10].
Data set [2] has as its system luciferase reaction (BacTiter-Glo). Nature of the data set: Interference assay (inhibition of the BacTiter-Glo luciferase reaction). The format is biochemical. On the set-up: concentration or dose not given beside the values. The following applies: ATP interference assay. As to the method:
To discard possible false-positive results, we performed an interference assay in parallel. […] […]. The ATP solution was made by dissolving ATP powder (ATP standard from the ATPlite 1 step assay kit, reference 6016731, Perkin Elmer) in culture medium. The positive control used was the Luciferase Inhibitor I Calbiochem (Merck, 119113) at 100 μM.

The subject of data set [3] is HepG2 cells. Nature of the data set: Cytotoxicity in HepG2 cells (intracellular ATP, ATPlite, 48 h). Type of data set: cell-based, human. The following applies: HepG2 cells; IC50 per ratio column head; unit inferred. In general terms: ATP-based viability assays read luminescence as a measure of living cells.
Procedure: Cells were grown and maintained in EMEM (Sigma-Aldrich) supplemented with 2mM L-glutamine (Sigma-Aldrich) and 10% fetal calf serum (Perbio). […] Passages were routinely made upon reaching 80–90% confluence. For cytotoxicity experiments, cells were seeded onto 96-well clear bottom black plates coated with type I collagen (Biocoat, Becton Dickinson) at a cell density of 20,000 cells/well.
To determine cytotoxic effects, represented by the Tox50 value (the concentration of drug that reduces cell viability by 50%), cells were exposed to serial dilutions of compounds for 48 h at 37°C. The assay medium was as previously described, but supplemented with 5% fetal calf serum instead of 10%. […] In the presence of ATP, luminescence is emitted as the reaction described earlier for the BacTiter-Glo kit. Percentages of inhibition were calculated relative to vehicle control wells.
Data set [4] deals with P. falciparum asexual stages. The note with it: asexual stages; TCAMS data; read-out: IC50 asexual; cited from earlier work.
[5] abbreviates: P. falciparum gametocytes, average, read-out: IC50 Pf Gametocytes average, IC50 (µM) average.
[6] abbreviates: sexual stages (gametocytes), dose-response, read-out: IC50 sexual.

Usually IC50 stands for the concentration at which inhibition is half-maximal.

Like-named read-outs stand apart in the source and are kept apart here.

Consider `COc1ccc(CNCCCCCCNCc2ccc(OC)c3ccccc23)c2ccccc12` [TCMDC-137631], for which the “Ratio IC50 HepG2/IC50 P. falciparum” value in data set [1] is 6. The IC50 in data set [1] (setting [5]) was 0.51 µM; in data set [1] (setting [6]), 0.505 µM; in data set [3], 3060 nM; in data set [4] it was 581 nM. Moreover, in data set [2], the “% Control luminiscence” value worked out at 91%.
`CN1CCN(CCNc2c3ccccc3nc3c2ccc2ccccc23)CC1` [TCMDC-137723]: in data set [1], the “Ratio IC50 HepG2/IC50 P. falciparum” value is listed as 17. For the same compound, the 50% inhibitory concentration (IC50) in data set [1] (setting [5]) was 0.39 µM; in data set [1] (setting [6]) it was 0.387 µM; in data set [3] it was 6600 nM; in data set [4], 606 nM. In data set [2], the “% Control luminiscence” value was 100%.
On to `c1cc(C2=NC3CCCCC3N2)ccc1OCCCCCOc1ccc(C2=NC3CCCCC3N2)cc1` (stereo not drawn) [TCMDC-137802], for which the “Ratio IC50 HepG2/IC50 P. falciparum” value in data set [1] amounted to 13. The IC50 in data set [1] (setting [5]) was 0.28 µM; in data set [3] it was 3740 nM; in data set [4] it was 228 nM. For the same compound, the “% Control luminiscence” value in data set [2] is 100%.
On to `Nc1nc(N)c2c(ccc3c2ccn3Cc2ccc(-c3ccccc3)cc2)n1` [TCMDC-137813], for which the “Ratio IC50 HepG2/IC50 P. falciparum” value in data set [1] is listed as 1.1. The concentration for half-maximal inhibition (IC50) in data set [1] (setting [5]) was 1.45 µM; in data set [1] (setting [6]), 1.45 µM; in data set [3] it was 1600 nM; in data set [4] it was 48 nM. Also, in data set [2], the “% Control luminiscence” value is reported as 100%.
With `CN(CCCNCc1cccc2ccccc12)CCCNCc1cccc2ccccc12` [TCMDC-137905], the “Ratio IC50 HepG2/IC50 P. falciparum” value in data set [1] is given as 25. Further, the concentration for half-maximal inhibition (IC50) was 0.23 µM in data set [1] (setting [5]), 5720 nM in data set [3] and 722 nM in data set [4]. Also, the “% Control luminiscence” value in data set [2] is recorded as 100%.
With `CN(CCCNCc1ccc2ccccc2c1)CCCNCc1ccc2ccccc2c1` [TCMDC-137908], the “Ratio IC50 HepG2/IC50 P. falciparum” value in data set [1] worked out at 94. Besides, the values for the half-maximal inhibitory concentration (IC50) in data set [1] (setting [5]), in data set [3] and in data set [4] were 0.05 µM, 4680 nM and 391 nM, respectively. Also, the “% Control luminiscence” value in data set [2] was determined as 100%.
For the compound `CCCOc1ccc(CCNCCCCNCCc2ccc(OCCC)c3ccccc23)c2ccccc12` [TCMDC-137952], in data set [1], the “Ratio IC50 HepG2/IC50 P. falciparum” value was 31. The IC50 in data set [1] (setting [5]) is 0.08 µM; in data set [1] (setting [6]), 0.083 µM; in data set [3], 2600 nM; in data set [4], 917 nM. Further, the “% Control luminiscence” value in data set [2] worked out at 100%.
Turning to `COc1ccc(CCNCCCCNCCc2ccc(OC)c3ccccc23)c2ccccc12` [TCMDC-137961], the “Ratio IC50 HepG2/IC50 P. falciparum” value in data set [1] is recorded as less than 0.6. The IC50 in data set [1] (setting [5]) was more than 5 µM; in data set [3], 3140 nM; in data set [4], 453 nM. Also, the “% Control luminiscence” value in data set [2] is listed as 95%.
`CCOCn1c(-c2ccccc2)cc2c3c(N)nc(N)nc3ccc21` [TCMDC-137979]: the “Ratio IC50 HepG2/IC50 P. falciparum” value in data set [1] is 4.35. The IC50 in data set [1] (setting [5]) is 1.3 µM; in data set [3], 5650 nM; in data set [4], 186 nM. Besides, the “% Control luminiscence” value in data set [2] is recorded as 94%.
On to `Cc1ccc(C(=O)Nc2ccc(Nc3ccnc4cc(-c5ccccn5)ccc34)cc2O)cc1` [TCMDC-138205], for which the “Ratio IC50 HepG2/IC50 P. falciparum” value in data set [1] is 6.48. Further, the half-maximal inhibitory concentration (IC50) was 0.48 µM in data set [1] (setting [5]), 3110 nM in data set [3] and 111 nM in data set [4]. The “% Control luminiscence” value in data set [2] is 100%.
For the compound `CN(C)CCNCc1cccc(-c2ccc3c(Nc4ccc(Oc5ccccn5)cc4)ccnc3c2)c1` [TCMDC-138493], the “Ratio IC50 HepG2/IC50 P. falciparum” value in data set [1] is given as 20. Moreover, the figures for the concentration for half-maximal inhibition (IC50) in data set [1] (setting [5]), in data set [3] and in data set [4] were 0.22 µM, 4490 nM and 233 nM, respectively. Also, the “% Control luminiscence” value in data set [2] came out at 100%.
Regarding `CS(=O)(=O)CCNCc1nc(-c2ccc3c(=O)[nH]cnc3c2)cs1` [TCMDC-138539], the “Ratio IC50 HepG2/IC50 P. falciparum” value in data set [1] is given as 1.57. In addition, the IC50 in data set [1] (setting [5]) was 2.68 µM; in data set [3], 4200 nM; in data set [4] it was 1010 nM. In addition, the “% Control luminiscence” value in data set [2] was found to be 98%.
In the case of `CN1CCN(CCCNCc2cccc(Nc3nccc(Nc4ccc(Oc5ccccc5)cc4)n3)c2)CC1` [TCMDC-138616], the “Ratio IC50 HepG2/IC50 P. falciparum” value in data set [1] was found to be 16. The IC50 was 0.32 µM in data set [1] (setting [5]), 5170 nM in data set [3] and 765 nM in data set [4]. The “% Control luminiscence” value in data set [2] is 100%.
On to `O=C(NCCCCN1CCC(c2ccc3c(c2OCCO)CCCC3)CC1)c1ccc2oc(-c3ccc(C(F)(F)F)cc3)cc2c1` [TCMDC-138771], for which the “Ratio IC50 HepG2/IC50 P. falciparum” value in data set [1] worked out at 10. Moreover, the half-maximal inhibitory concentration (IC50) is 0.63 µM in data set [1] (setting [5]), 6590 nM in data set [3] and 340 nM in data set [4]. For the same compound, the “% Control luminiscence” value in data set [2] worked out at 97%.
As for `CCCCCCCN1CC[C@@H](CCCc2ccnc3ccc(OC)cc23)[C@@H](CCN)C1` [TCMDC-139278], in data set [1], the “Ratio IC50 HepG2/IC50 P. falciparum” value came to 11. Moreover, the IC50 is 0.27 µM in data set [1] (setting [5]), 0.267 µM in data set [1] (setting [6]), 2980 nM in data set [3] and 748 nM in data set [4]. Moreover, in data set [2], the “% Control luminiscence” value is listed as 100%.
`O=C(Nc1ccc(Oc2ccccc2)cc1)N(CCN1CCCC1)Cc1ccc(-c2ccc(CN3CCNCC3)cc2)cc1` [TCMDC-139652]: in data set [1], the “Ratio IC50 HepG2/IC50 P. falciparum” value is listed as 7. Moreover, the half-inhibitory concentration (IC50) in data set [1] (setting [5]) was 1.02 µM; in data set [1] (setting [6]) it was 1.01 µM; in data set [3], 7080 nM; in data set [4], 892 nM. Further, the “% Control luminiscence” value in data set [2] is listed as 93%.
Turning to `CC(Cc1ccc(CNC(=O)c2ccc(CC(C)NCCc3cccc(Cl)c3)cc2)cc1)NCCc1cccc(Cl)c1` (stereo not drawn) [TCMDC-139659], in data set [1], the “Ratio IC50 HepG2/IC50 P. falciparum” value is reported as 5.53. Moreover, the IC50 in data set [1] (setting [5]) was 0.57 µM; in data set [3], 3150 nM; in data set [4], 696 nM. Also, in data set [2], the “% Control luminiscence” value is reported as 98%.
Take `CC(Cc1ccc(C(=O)Nc2ccc(CC(C)NCCc3cccc(Cl)c3)cc2)cc1)NCCc1ccc(C(F)(F)F)cc1` (stereo not drawn) [TCMDC-139790]: the “Ratio IC50 HepG2/IC50 P. falciparum” value in data set [1] came to 11. Besides, the half-maximal inhibitory concentration (IC50) was 0.31 µM in data set [1] (setting [5]), 0.307 µM in data set [1] (setting [6]), 3300 nM in data set [3] and 570 nM in data set [4]. For the same compound, the “% Control luminiscence” value in data set [2] is 100%.
Consider `CC(CCCCCC(=O)Nc1ccc(CC(C)NCCc2cccc(Cl)c2)cc1)NCCc1cccc(Cl)c1` (stereo not drawn) [TCMDC-139800], for which the “Ratio IC50 HepG2/IC50 P. falciparum” value in data set [1] was 7.38. For the same compound, the half-maximal inhibitory concentration (IC50) in data set [1] (setting [5]) is 0.43 µM; in data set [1] (setting [6]), 0.433 µM; in data set [3], 3200 nM; in data set [4], 948 nM. The “% Control luminiscence” value in data set [2] is recorded as 100%.
With `CCCCCCCN1CC[C@@H](CCCc2ccnc3ccc(OCCN4CCNCC4)cc23)[C@@H](CC)C1` [TCMDC-139817], in data set [1], the “Ratio IC50 HepG2/IC50 P. falciparum” value is 12. In addition, the IC50 in data set [1] (setting [5]) is 0.57 µM; in data set [1] (setting [6]), 0.567 µM; in data set [3], 6750 nM; in data set [4] it was 771 nM. Also, in data set [2], the “% Control luminiscence” value turned out to be 94%.
With `O=C(/C=C/c1ccc(Cl)c(Cl)c1)N1CCC(CCN2CCC(c3c[nH]c4cnccc34)CC2)CC1` [TCMDC-140136], in data set [1], the “Ratio IC50 HepG2/IC50 P. falciparum” value is given as 36. The IC50 in data set [1] (setting [5]) is 0.2 µM; in data set [3], 7210 nM; in data set [4], 119 nM. In data set [2], the “% Control luminiscence” value was 100%.
Consider `Cc1cccc2[nH]cc(C3CCN(CC4CCC(NC(=O)/C=C/c5ccc(Cl)c(Cl)c5)CC4)CC3)c12` (stereo not drawn) [TCMDC-140137], for which the “Ratio IC50 HepG2/IC50 P. falciparum” value in data set [1] is on record as 2. In addition, the IC50 in data set [1] (setting [5]) was 1.45 µM; in data set [1] (setting [6]), 1.45 µM; in data set [3] it was 2950 nM; in data set [4] it was 163 nM. Further, the “% Control luminiscence” value in data set [2] is 100%.
